For series [1], the target named is T1, LgtC (Neisseria meningitidis, UniProt Q93EK7, Q189A).
T1 construct: a deletion mutant of LgtC missing the C-terminal 25 residues; made in house; host or cells: E. coli (AD202)
Put plainly: biochemical. Conditions: Q189A mutant; added reagent. It is filed as biochemical. On the procedure:
(§1) Synthesis of UDP-2Fgal was achieved essentially as described previously (ref. 19). Syntheses of 4′-deoxylactose, 6′-deoxylactose and galactosyl β-1,6-lactose will be described elsewhere. Kinetic studies were performed at 30° C. in 20 mM HEPES, pH 7.5 containing 0.1% bovine serum albumin, 50 mM KCl, 5 mM MnCl2 and 5 mM DTT. […] The change in absorbance was measured by means of a UNICAM 8700 UV-Vis spectrophotometer equipped with a circulating water bath. Kinetic parameters were calculated by direct fit of the initial rates to the respective equations using Grafit version 3.0 (ref.43).

Series [2] addresses T2, LgtC (Neisseria meningitidis, UniProt Q93EK7).
T2 construct: a deletion mutant of LgtC missing the C-terminal 25 residues; made in house; host or cells: E. coli (AD202)
Put plainly: biochemical. Conditions: for Function as a substrate for LgtC (transfer): galactosyl β-1,6-lactose incubated in the presence of UDP plus the usual buffer components. Type of series: biochemical. The method, then:
as §1

In series [3] the test system is OC[C@H]1O[C@@H](O[C@H]2[C@H](O)[C@@H](O)C(O)O[C@@H]2CO)[C@H](O)[C@@H](O)[C@H]1O. Put plainly: purified protein, by the assay type. Type of series: biochemical, Neisseria meningitidis. Conditions: other: LgtC wild type; acceptor substrate; pH 7.5; 30.0 °C.
Series [4] concerns two other galactosyltransferases. Particulars: shown previously; cited from earlier work.

Structures can show the parent of a compound that is named as a salt.

T2 sequence (Q93EK7 entry or part of it): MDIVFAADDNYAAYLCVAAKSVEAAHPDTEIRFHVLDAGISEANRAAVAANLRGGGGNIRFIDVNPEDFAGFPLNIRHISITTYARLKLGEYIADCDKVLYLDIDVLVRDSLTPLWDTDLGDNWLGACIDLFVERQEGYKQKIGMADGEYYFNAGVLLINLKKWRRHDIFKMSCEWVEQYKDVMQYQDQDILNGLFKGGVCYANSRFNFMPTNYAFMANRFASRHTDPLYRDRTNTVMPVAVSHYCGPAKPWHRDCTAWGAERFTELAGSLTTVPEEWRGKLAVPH
T1 sequence (Q93EK7 1-286 Q189A): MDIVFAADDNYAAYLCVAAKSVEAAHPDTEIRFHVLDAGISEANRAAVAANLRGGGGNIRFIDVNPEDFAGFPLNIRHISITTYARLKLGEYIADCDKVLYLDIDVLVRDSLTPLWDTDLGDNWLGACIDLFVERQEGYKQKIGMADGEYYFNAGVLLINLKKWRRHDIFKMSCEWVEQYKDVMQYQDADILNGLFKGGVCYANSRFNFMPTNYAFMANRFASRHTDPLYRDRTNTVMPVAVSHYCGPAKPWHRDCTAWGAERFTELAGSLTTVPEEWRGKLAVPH

Turning to `O=CO` [formate], on LgtC [1], the “Rescue of activity of the Q189A mutant by added small molecules (rate increase)” value (“Rescue of activity … (rate increase)” below) was “No rate increases were observed”.

Turning to `CC(=O)O` [acetate], the “Rescue of activity … (rate increase)” value at LgtC [1] is reported as “No rate increases were observed”.

Regarding `OC[C@@H]1C[C@H](O)[C@@H](O)[C@H](O[C@H]2[C@H](O)[C@@H](O)C(O)O[C@@H]2CO)O1` (some centres unmarked) [4-deoxylactose, 4′-Deoxylactose], on LgtC [2], affinity was put at a Ki of 16 mM. The “Function as a substrate for LgtC (transfer)” value (from here on “Function as a substrate”) on LgtC [2] (LgtC) is “cannot function as a substrate”.

On to `NC=O` [formamide], for which the “Rescue of activity … (rate increase)” value at LgtC [1] is given as “No rate increases were observed”.

As to `CC(N)=O` [acetamide], the “Rescue of activity … (rate increase)” value at LgtC [1] is “No rate increases were observed”.

For `C[C@H]1OC(O)[C@H](O)[C@@H](O)[C@@H]1O[C@@H]1O[C@H](CO)[C@H](O)[C@H](O)[C@H]1O` (some centres unmarked) [6-deoxylactose], on LgtC [2] (LgtC), the “Action as an inhibitor of LgtC” value was “neither did it act as an inhibitor” and the “Function as a substrate” value is on record as “shown not to function as a substrate”.

On to galactosyl β-1,6-lactose, for which the “Function as a substrate” value on LgtC [2] (LgtC) is listed as “does not function as a substrate”.

Regarding LgtC (Neisseria meningitidis), the Michaelis-Menten constant (Km) in series [3] was determined as 20 mM.

For the molecule `O=c1ccn([C@@H]2O[C@H](COP(=O)(O)OP(=O)(O)O[C@H]3O[C@H](CO)[C@H](O)[C@H](O)[C@H]3F)[C@@H](O)[C@H]2O)c(=O)[nH]1` [UDP-2FGal, Uridine 5′-diphospho-(2-deoxy-2-fluoro)-α-D-galactopyranose, di-ammonium Salt, reference compound], the “Inhibition of other galactosyltransferases” value in series [4] was “shown to inhibit”. The molecule also yielded a Ki on LgtC [2] of 0.002 mM. Also, the “Function as a substrate” value at LgtC [2] (LgtC) is “no transfer occurs”.

On to `[N-]=[N+]=[N-]` [azide], for which, at LgtC [1], the “Rescue of activity … (rate increase)” value is listed as “No rate increases were observed”.

Source of the values: patent publication US20040096951A1, “Crystal structures of retaining glycosytransferases” (priority 2003, published 2004).
